Measured values: paper PMC11126915, “iATPSnFR2: A high-dynamic-range fluorescent sensor for monitoring intracellular ATP” (Proceedings of the National Academy of Sciences of the …, 2024)

What was measured:
iATPSnFR2.A95A.A119L [1] = system: T1, iATPSnFR2.A95A.A119L; assay: Equilibrium fluorescence titration of 0.2 µM purified sensor HaloTag-JFX650 conjugate with ATP and ADP head-to-head (ex 485 nm, em 535 nm) in Mammalian Cell Imaging Buffer (20 mM HEPES, 119 mM NaCl, 2.5 mM KCl, 2 mM MgCl2, 2 mM CaCl2, pH 7.2).; settings: n = 3; read-out: Binding curve fits, in µM, for ATP and ADP (affinity)
T1 construct: epsilon subunit residues 1-109, linker 1 VLVG, cpSFGFP, linker 2 ICV, residues 110-129, C-terminal HaloTag conjugated to JFX650
Experimental: (§1) Purified protein was mixed with 1.1 molar equivalents of JFX650 HaloTag ligand and incubated at room temperature for 1 h and then at 4 °C overnight. Excess HaloTag ligand was removed by gel filtration on a PD-10 column (GE Life Sciences) and reconcentrated by ultrafiltration.
(§2) All in vitro assays were performed in Mammalian Cell Imaging Buffer unless otherwise noted. iATPSnFR2 equilibrium measurements (affinity, specificity, pH) were performed with 0.2 µM protein in a Tecan Spark fluorimeter with 20 nm bandpass windows and excitation at 485 nm and emission at 535 nm.
(§3) Supplementary Figure 1a. In vitro characterization: ATP & ADP affinity. Three variants of iATPSnFR2.HaloTag-JFX650 titrated with ATP (black) and ADP (grey), head-to-head. iATPSnFR2.S29W.A95K (left); iATPSnFR2.A95K (center); iATPSnFR2.A95A.A119L (right). Binding curve fits, in µM, for ATP and ADP are S29W.A95K: 4 µM, 400 µM. A95K: 16 µM, 780 µM.
(§4) A95A.A119L: 530 µM, 5300 µM. Error bars are s.d. of three technical replicates. […]

iATPSnFR2.A95K [2] = system: T2, iATPSnFR2.A95K; assay: as above; settings: n = 3; read-out: Binding curve fits, in µM, for ATP and ADP (affinity)
T2 construct: epsilon subunit residues 1-109, linker 1 VLVG, cpSFGFP, linker 2 ICV, residues 110-129, C-terminal HaloTag conjugated to JFX650
Experimental: as §1, §2, §3, §4

iATPSnFR2.S29W.A95K [3] = system: T3, iATPSnFR2.S29W.A95K; assay: as above; settings: n = 3; read-out: Binding curve fits, in µM, for ATP and ADP (affinity)
T3 construct: epsilon subunit residues 1-109, linker 1 VLVG, cpSFGFP, linker 2 ICV, residues 110-129, C-terminal HaloTag conjugated to JFX650
Experimental: as §1, §2, §3, §4

iATPSnFR2.A95A.A119L [4] = system: T1, iATPSnFR2.A95A.A119L; assay: Separate head-to-head equilibrium fluorescence titration of 0.2 µM purified sensor HaloTag-JFX650 conjugate with ATP and other nucleoside triphosphates (ex 485 nm, em 535 nm) in Mammalian Cell Imaging Buffer, pH 7.2.; settings: n = 3; read-out: Binding curve fits, in µM, for ATP, CTP, GTP (binding specificity)
Experimental: as §1, §2
(§5) [NTP], µM [NTP], µM [NTP], µM
(§6) Supplementary Figure 1d. In vitro characterization: binding specificity. iATPSnFR2 affinity for ATP
(§7) and other nucleoside triphosphates. Three variants of iATPSnFR2.HaloTag-JFX650 titrated with ATP
(§8) and other NTPs, head-to-head. S29W.A95K (left); A95K (center); A95A.A119L (right). ATP (black),
(§9) CTP (cyan), GTP (grey), TTP (purple). Binding curve fits, in µM, for ATP, CTP, GTP are S29W.A95K:
(§10) Error bars are s.d. of three technical replicates.

iATPSnFR2.A95K [5] = system: T2, iATPSnFR2.A95K; assay: as above; settings: n = 3; read-out: Binding curve fits, in µM, for ATP, CTP, GTP (binding specificity)
Experimental: as §1, §2, §5, §6, §7, §8, §9, §10

iATPSnFR2.S29W.A95K [6] = system: T3, iATPSnFR2.S29W.A95K; assay: as above; settings: n = 3; read-out: Binding curve fits, in µM, for ATP, CTP, GTP (binding specificity)
Experimental: as §1, §2, §5, §6, §7, §8, §9, §10

[7] = system: axonal mitochondria of primary hippocampal neurons; assay: mitochondrial matrix ATP imaging in axonal mitochondria of primary neurons; type: cell-based, Sprague-Dawley rats; settings: 10 µM, perfusion; KA in 5 mM glucose; oligomycin in 1.25 mM lactate + 1.25 mM pyruvate
From the text: iATPSnFR2.HaloTag variants were subcloned by restriction digest into an AAV vector with a CAG promoter via BglII/PstI digest from the bacterial expression vector. The pAAV.CAG vector includes an extra serine after the initial methionine and lacks a polyhistidine tag. To target the sensor to the mitochondrial matrix, four repeats of COX8(mito) leader sequence ([…]) separated by spacer (IHSLPPEGPW) were introduced at the N terminus of iAPTSnFR2(A95A/A119L). HaloTag was incorporated at the N-terminal of iATPSnFR2.A95A.A119L separated by a linker (LQSTGSGNAVGQDTQER). […]
(§11) Coverslips were loaded onto a custom chamber ([32]), mounted on a Zeiss inverted microscope and perfused at ~100 µL min^–1 with Tyrode’s solution containing: 119 mM NaCl, 2.5 mM KCl, 5 mM glucose, 50 mM HEPES, 2 mM CaCl2, 2 mM MgCl2, 50 µM DL-2-amino-5-phosphonovaleric acid (AP5), and 10 µM 6-cyano-7-nitroquinoxaline-2,3-dione (CNQX), adjusted to pH 7.4. […] Fluorescence was stimulated with OBIS 488 nm LX or OBIS 637 nm LS lasers (Coherent) passing through a laser speckle reducer (LSR 3005 at 12° diffusion angle, Optotune). […]
Time series of imaging pairs (HaloTag and iATPSnFR2) were split into two independent image series using a custom-written Fiji routine to facilitate analysis. […] Synaptic boutons signals were analyzed using homemade script routines in Igor-pro v6.3.7.2 (WaveMetrics, Lake Oswego, OR, USA). […]

LMTK- cells = assay: green:red ratio imaging of fibroblasts expressing iATPSnFR2-HaloTag variants; type: cell-based, mouse; settings: 10 mM 2dOG replacing 10 mM glucose
Experimental: (§12) Rho° and the parental LMTK- cells were maintained in T-75 flasks with Dulbecco’s Modified Eagle's Medium (DMEM) + 10% Fetal Bovine Serum (FBS) + 1 mM pyruvate + 5 µM uridine. Two days prior to transfection, they were split into separate rows of a 24-well plate (half Rho°, half LMTK) at 0.6 and 0.1 million cells per well, respectively. Cells were transfected with iATPSnFR2.HaloTag variants by lipofectamine (0.5 µg DNA + 2 µL lipofectamine 2,000 per well) for 4 to 6 h in DMEM lacking FBS or antibiotics. Transfection medium was replaced with fresh DMEM + 10% FBS + penicillin/streptomycin overnight. Cells were labeled with JFX650 HaloTag ligand by adding the fluorophore to 100 nM for an hour. Cells were washed with Mammalian Cell Imaging Buffer and imaged in a Cytation 5 imaging reader (BioTek) over the course of about 2 h. After about 20 min of imaging to establish a baseline fluorescence, the culture plate was removed from the instrument, and buffer was replaced with the query buffer. The equilibration buffer contained 10 mM glucose, and the query buffers contained 10 mM 2dOG.
(§13) Images were background subtracted and aligned for movement artifacts with the Gen5 software package that controls the Cytation 5 instrument. Images were assembled as TIF stacks and imported into ImageJ. […] Those ROIs were used to determine the ratio of green to red fluorescence for each well. […]

Rho° cells = assay: as above; type: cell-based, mouse; settings: 10 mM 2dOG replacing 10 mM glucose
Experimental: as §12, §13

[8] = system: nerve terminals of dissociated hippocampal neurons; assay: ATP depletion in nerve terminals during AP firing; type: cell-based, Sprague-Dawley rats; settings: 5 mM glucose + 10 µM KA, 6 s at 50 Hz
Experimental: (§14) Primary neuronal cultures were prepared as previously described ([31]). Hippocampal CA1 to CA3 regions were dissected, dissociated, and plated onto poly-L-ornithine-coated coverslips. Plating media consisted of the minimal essential medium, 0.5% glucose, insulin (0.024 g/L), transferrin ([…]), GlutaMAX 1%, N-21 (2%), and fetal bovine serum (10%). After 1 to 3 days in vitro (DIV), cells were fed and maintained in media with the following modifications: cytosine β-D-arabinofuranoside (4 µM) and FBS 5%. Cultures were incubated at 37 °C in a 95% air/5% CO2 incubator. Calcium phosphate–mediated gene transfer was performed on DIV 6 to 8, and neurons were used for experiments on DIV 14 to 21.
as §11

[9] = system: synaptic boutons of hippocampal neurons; assay: spontaneous ATP depletion in synaptic boutons (synaptophysin-targeted iATPSnFR2); type: cell-based, Sprague-Dawley rats; settings: 5 mM glucose + 10 µM KA + 0.3 µM TTX, iATPSnFR2.A95A.A119L.HaloTag-JFX650
Experimental: as §14, §11

Compound: Nc1ncnc2c1ncn2[C@@H]1O[C@H](COP(=O)(O)OP(=O)(O)OP(=O)(O)O)[C@@H](O)[C@H]1O [ATP, adenosine triphosphate]
- Kd (iATPSnFR2.A95A.A119L [1]): 530 µM
- Kd (iATPSnFR2.A95K [2]): 16 µM
- Kd (iATPSnFR2.S29W.A95K [3]): 4 µM
- Kd (iATPSnFR2.A95A.A119L [4]): 750 µM
- Kd (iATPSnFR2.A95K [5]): 30 µM
- Kd (iATPSnFR2.S29W.A95K [6]): 20 µM

Compound: Nc1ncnc2c1ncn2[C@@H]1O[C@H](COP(=O)(O)OP(=O)(O)O)[C@@H](O)[C@H]1O [ADP, adenosine diphosphate]
- Kd (iATPSnFR2.A95A.A119L [1]): 5300 µM
- Kd (iATPSnFR2.A95K [2]): 780 µM
- Kd (iATPSnFR2.S29W.A95K [3]): 400 µM

Compound: Nc1ccn([C@@H]2O[C@H](COP(=O)(O)OP(=O)(O)OP(=O)(O)O)[C@@H](O)[C@H]2O)c(=O)n1 [CTP, cytidine triphosphate]
- Kd (iATPSnFR2.A95A.A119L [4]): ~10000 µM
- Kd (iATPSnFR2.A95K [5]): 100 µM
- Kd (iATPSnFR2.S29W.A95K [6]): 50 µM

Compound: CC[C@H]1/C=C/C=C/C[C@@H](C)[C@H](O)[C@@](C)(O)C(=O)[C@@H](C)[C@H](O)[C@@H](C)C(=O)[C@@H](C)[C@H](O)[C@@H](C)/C=C/C(=O)O[C@@H]2[C@H](C)[C@H](CC1)O[C@]1(CC[C@H](C)[C@H](C[C@@H](C)O)O1)[C@H]2C [oligomycin]
- effect on mitochondrial ATP signal (mito-iATPSnFR2.HaloTag) [7]: further collapse of the ATP signal

Compound: Nc1nc2c(ncn2[C@@H]2O[C@H](COP(=O)(O)OP(=O)(O)OP(=O)(O)O)[C@@H](O)[C@H]2O)c(=O)[nH]1 [GTP, guanosine triphosphate]
- Kd (iATPSnFR2.A95A.A119L [4]): ~10000 µM
- Kd (iATPSnFR2.A95K [5]): 1500 µM
- Kd (iATPSnFR2.S29W.A95K [6]): 430 µM

Compound: O=CC[C@@H](O)[C@H](O)[C@H](O)CO [2dOG, 2-deoxyglucose]
- effect on green fluorescence of iATPSnFR2 variants (LMTK- cells): decreased fluorescence only in those expressing the weakest affinity variant
- effect on green fluorescence of iATPSnFR2 variants (Rho° cells): green fluorescence rapidly dropped

Compound: CC(C)[C@H]1CC[C@@]2(CO2)[C@H]2C(=O)OCC(C(=O)O)=C[C@H]12 [KA, koningic acid]
- effect on iATPSnFR2 fluorescence during AP stimulation [8]: even greater decrease in fluorescence that did not recover
- effect on mitochondrial ATP signal (mito-iATPSnFR2.HaloTag) [7]: rapid drop in the ATP signal
- effect on average green to red fluorescence ratio in boutons [9]: gradually declined over a 5 to 10 min period
